The results in this text go back to ChEMBL document CHEMBL2331372, “Design and synthesis of D₁ agonist/D₂ antagonist for treatment of schizophrenia” (Bioorg Med Chem Lett, 2013).

Molecules are shown by their SMILES. Some results are limits rather than exact numbers.

Data set [1] has as its target T1, D(1A) dopamine receptor (Homo sapiens, UniProt P21728). Put plainly: Agonist activity at dopamine D1 receptor (unknown origin) transfected in CHO cell membranes assessed as increase in cAMP level after 8 mins by flash plate assay in presence of dopamine. The format is functional, cell-based. A general note: Changes in cAMP serve as a functional read-out for many G protein-coupled receptors.

Data set [2] has as its target T1, D(1A) dopamine receptor. The data set is described as follows: Displacement of [3H]SCH23390 from dopamine D1 receptor (unknown origin) expressed in CHO cell membranes after 60 mins. In general terms: Loss of bound radioactivity is the signal in a displacement assay; it reports binding, not function.
Data set [3] addresses T2, D(2) dopamine receptor (Homo sapiens, UniProt P14416). The data set is described as follows: Displacement of [3H]N-methylspiperone from dopamine D2 receptor (unknown origin) expressed in CHO cell membranes after 60 mins.
Data set [4] concerns the target T2, D(2) dopamine receptor. Put plainly: Antagonist activity at dopamine D2 receptor (unknown origin) transfected in CHO cell membranes assessed as inhibition of forskolin-stimulated cAMP level after 10 mins by flash plate assay in presence of dopamine. The format is functional, cell-based.
For data set [5], the target named is Cytochrome P450 2C19 (Homo sapiens, UniProt P33261). Put plainly: Inhibition of CYP2C19 (unknown origin). The class given is ADME.
Cytochrome P450 2C19, sequence (P33261 whole entry): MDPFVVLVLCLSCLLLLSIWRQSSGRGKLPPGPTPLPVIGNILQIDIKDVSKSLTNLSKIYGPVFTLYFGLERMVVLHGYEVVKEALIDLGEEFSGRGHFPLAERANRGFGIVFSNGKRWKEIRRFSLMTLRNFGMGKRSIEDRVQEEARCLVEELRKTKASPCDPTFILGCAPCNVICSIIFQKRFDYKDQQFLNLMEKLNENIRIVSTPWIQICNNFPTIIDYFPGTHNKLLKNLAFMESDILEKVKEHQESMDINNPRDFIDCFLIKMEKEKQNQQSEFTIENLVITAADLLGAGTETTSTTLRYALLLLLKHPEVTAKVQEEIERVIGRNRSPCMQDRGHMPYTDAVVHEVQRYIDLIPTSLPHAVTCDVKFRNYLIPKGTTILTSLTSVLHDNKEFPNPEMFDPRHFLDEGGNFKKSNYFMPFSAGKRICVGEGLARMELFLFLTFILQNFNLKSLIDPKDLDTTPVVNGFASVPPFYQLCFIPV
Data set [6] concerns the target T3, Cytochrome P450 1A2 (Homo sapiens, UniProt P05177).
T3 sequence (P05177 whole entry): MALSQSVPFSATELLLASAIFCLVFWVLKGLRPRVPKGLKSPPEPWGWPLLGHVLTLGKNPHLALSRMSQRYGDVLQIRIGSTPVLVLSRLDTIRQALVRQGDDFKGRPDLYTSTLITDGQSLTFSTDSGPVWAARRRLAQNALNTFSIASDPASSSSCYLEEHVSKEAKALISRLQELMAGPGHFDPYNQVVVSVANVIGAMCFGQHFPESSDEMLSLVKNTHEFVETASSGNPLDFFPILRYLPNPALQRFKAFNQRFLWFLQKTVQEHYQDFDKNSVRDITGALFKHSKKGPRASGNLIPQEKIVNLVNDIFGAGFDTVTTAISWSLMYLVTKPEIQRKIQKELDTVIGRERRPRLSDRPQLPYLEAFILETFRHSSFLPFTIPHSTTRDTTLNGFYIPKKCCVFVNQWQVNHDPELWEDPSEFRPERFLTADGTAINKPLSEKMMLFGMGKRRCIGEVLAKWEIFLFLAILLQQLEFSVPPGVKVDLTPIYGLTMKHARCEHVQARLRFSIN
The data set is described as follows: Inhibition of CYP1A2 (unknown origin). The class given is ADME.

Data set [7] concerns Mus musculus. The data set is described as follows: In vivo receptor occupancy of dopamine D2 receptor in CD1 mouse striatum assessed as inhibition of [3H]N-methylspiperone binding at 10 mg/kg, sc after 15 mins by scintillation counting analysis. The format is functional. To be noted: route subcutaneous.
The target of data set [8] is Cytochrome P450 2D6 (Homo sapiens, UniProt P10635). Put plainly: Inhibition of CYP2D6 (unknown origin). The class given is ADME.
Cytochrome P450 2D6, sequence (P10635 whole entry): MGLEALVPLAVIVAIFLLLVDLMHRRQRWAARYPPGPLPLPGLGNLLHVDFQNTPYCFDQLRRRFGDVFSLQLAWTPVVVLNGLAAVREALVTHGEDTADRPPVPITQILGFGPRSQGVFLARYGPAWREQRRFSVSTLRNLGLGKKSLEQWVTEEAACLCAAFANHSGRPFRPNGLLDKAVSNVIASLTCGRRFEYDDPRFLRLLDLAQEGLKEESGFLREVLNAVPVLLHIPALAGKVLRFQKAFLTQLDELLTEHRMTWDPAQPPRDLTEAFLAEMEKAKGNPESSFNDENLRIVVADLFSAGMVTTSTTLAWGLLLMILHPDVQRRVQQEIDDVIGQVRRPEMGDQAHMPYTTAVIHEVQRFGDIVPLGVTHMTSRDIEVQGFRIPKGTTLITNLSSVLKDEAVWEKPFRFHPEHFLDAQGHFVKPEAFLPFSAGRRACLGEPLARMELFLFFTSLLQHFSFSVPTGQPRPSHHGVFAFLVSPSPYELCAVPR
Data set [9] has as its target Cytochrome P450 2C9 (Homo sapiens, UniProt P11712). The data set is described as follows: Inhibition of CYP2C9 (unknown origin). The format is ADME.
In data set [10] the target is Cytochrome P450 3A4 (Homo sapiens, UniProt P08684). Put plainly: Inhibition of CYP3A4 (unknown origin). The class given is ADME.
Cytochrome P450 3A4, sequence (P08684 whole entry): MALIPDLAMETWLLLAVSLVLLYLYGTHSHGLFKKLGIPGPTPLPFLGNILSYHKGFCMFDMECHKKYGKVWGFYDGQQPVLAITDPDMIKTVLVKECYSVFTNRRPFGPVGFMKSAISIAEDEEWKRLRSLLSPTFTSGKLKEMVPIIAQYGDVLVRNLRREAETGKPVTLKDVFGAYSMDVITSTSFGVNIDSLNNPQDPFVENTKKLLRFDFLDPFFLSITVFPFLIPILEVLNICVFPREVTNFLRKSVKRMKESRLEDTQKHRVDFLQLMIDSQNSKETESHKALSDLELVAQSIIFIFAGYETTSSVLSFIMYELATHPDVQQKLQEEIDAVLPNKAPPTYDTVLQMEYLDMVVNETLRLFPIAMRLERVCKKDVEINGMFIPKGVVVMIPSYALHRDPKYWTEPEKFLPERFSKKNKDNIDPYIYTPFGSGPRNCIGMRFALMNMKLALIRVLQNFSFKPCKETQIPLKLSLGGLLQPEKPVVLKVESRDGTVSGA
The subject of data set [11] is Mus musculus. Put plainly: In vivo receptor occupancy of dopamine D1 receptor in CD1 mouse striatum assessed as inhibition of [3H]SCH23390 binding at 10 mg/kg, sc after 15 mins by scintillation counting analysis. The class given is functional. The note with it: route subcutaneous.

T1 sequence (P21728 whole entry): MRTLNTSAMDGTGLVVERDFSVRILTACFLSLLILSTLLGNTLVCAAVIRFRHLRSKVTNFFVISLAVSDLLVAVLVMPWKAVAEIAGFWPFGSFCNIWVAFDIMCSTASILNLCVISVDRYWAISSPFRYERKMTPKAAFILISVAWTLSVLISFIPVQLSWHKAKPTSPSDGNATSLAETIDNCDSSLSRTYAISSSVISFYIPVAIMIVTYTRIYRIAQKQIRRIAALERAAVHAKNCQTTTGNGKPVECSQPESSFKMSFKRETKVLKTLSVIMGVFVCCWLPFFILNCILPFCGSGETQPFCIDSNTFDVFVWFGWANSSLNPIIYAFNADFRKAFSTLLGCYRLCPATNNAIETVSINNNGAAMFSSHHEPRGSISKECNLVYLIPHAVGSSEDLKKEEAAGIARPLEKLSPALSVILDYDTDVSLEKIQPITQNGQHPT
T2 sequence (P14416 whole entry): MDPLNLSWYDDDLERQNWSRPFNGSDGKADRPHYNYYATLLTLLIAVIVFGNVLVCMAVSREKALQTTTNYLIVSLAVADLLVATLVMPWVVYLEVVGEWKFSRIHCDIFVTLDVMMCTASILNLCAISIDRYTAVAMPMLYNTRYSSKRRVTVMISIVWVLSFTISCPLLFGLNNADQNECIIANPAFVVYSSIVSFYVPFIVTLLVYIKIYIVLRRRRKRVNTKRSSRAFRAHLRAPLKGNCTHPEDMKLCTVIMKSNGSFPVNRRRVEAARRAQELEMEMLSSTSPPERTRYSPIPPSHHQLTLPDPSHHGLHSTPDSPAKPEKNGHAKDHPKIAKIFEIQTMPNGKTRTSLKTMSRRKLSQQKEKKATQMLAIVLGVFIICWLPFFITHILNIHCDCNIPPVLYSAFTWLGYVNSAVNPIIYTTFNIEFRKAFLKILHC
Cytochrome P450 2C9, sequence (P11712 whole entry): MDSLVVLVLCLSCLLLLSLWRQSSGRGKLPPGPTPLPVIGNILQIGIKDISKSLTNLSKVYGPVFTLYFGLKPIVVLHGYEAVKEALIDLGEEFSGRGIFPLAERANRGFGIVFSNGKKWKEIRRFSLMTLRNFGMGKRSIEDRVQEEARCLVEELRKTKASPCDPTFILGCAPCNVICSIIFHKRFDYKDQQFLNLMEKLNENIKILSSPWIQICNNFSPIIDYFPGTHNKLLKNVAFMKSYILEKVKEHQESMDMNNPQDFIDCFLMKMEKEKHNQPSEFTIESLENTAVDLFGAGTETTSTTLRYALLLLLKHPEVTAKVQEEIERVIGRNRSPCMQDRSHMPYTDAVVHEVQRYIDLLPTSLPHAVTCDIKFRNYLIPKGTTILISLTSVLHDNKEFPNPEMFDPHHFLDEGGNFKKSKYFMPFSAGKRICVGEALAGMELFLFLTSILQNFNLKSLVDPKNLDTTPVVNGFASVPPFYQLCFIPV

In the case of `COc1ccc2c(c1)CCN1CC[C@@](O)(c3ccc(Cl)cc3)C[C@H]21`, the concentration giving a half-maximal response (EC50) (usually the concentration giving half of the maximal effect) in data set [1] (cho) is listed as “Not Active”. The inhibition constant (Ki) (commonly the dissociation constant of the complex between target and ligand, obtained from inhibition or displacement) was 3340 nM in data set [2] and above 10000 nM in data set [3].

Take `COc1cc2c(cc1O)[C@H]1C[C@](O)(c3ccc(Cl)cc3)CCN1CC2`: the half-maximal inhibitory concentration (IC50) (in general, the point on the concentration scale where inhibition reaches its midpoint) in [4] is 380 nM. The EC50 entry in data set [1] (cho) is reported as “Not Active”. In addition, the figures for the Ki in [2] and in data set [3] were 244 nM and 101 nM, respectively.

Regarding `COc1ccc2c(c1)CCN1CC[C@](O)(c3ccc(Cl)cc3)C[C@H]21`, the IC50 in data set [4] is 1010 nM. For the same compound, the EC50 entry in data set [1] (cho) is “Not Active”. Also, the Ki worked out at 252 nM in data set [2] and 195 nM in [3].

Regarding `COc1cc2c(cc1O)[C@H]1C[C@@](O)(c3ccc(OC(F)(F)F)cc3)CCN1CC2`, the “inhibition (INH)” value in data set [5], in data set [6], in [9] and in [10] was “Not Active” throughout. Besides, the IC50 in data set [4] was determined as 6 nM; in data set [8] it was 840 nM. The Occ in [7] is on record as 75%; in [11] it was 95%. Besides, in [1] (read-out: EC50), the concentration giving a half-maximal response (EC50) came out at 5 nM. Further, the Ki in data set [2] stood at 2 nM; in [3] it was 4 nM.

For `COc1cc2c(cc1O)[C@H]1C[C@@](O)(c3ccc(Cl)cc3)CCN1CC2`, the EC50 in [1] (read-out: EC50) was 8 nM. Besides, the Ki in data set [2] was 4 nM; in data set [3] it was 14.8 nM.

Consider `Cc1cc2c(cc1O)[C@H]1C[C@@](O)(c3ccc(Cl)cc3)CCN1CC2`, for which the half-inhibitory concentration (IC50) in data set [4] was found to be 220 nM. Also, the EC50 in [1] (read-out: EC50) stood at 11 nM. Further, the results for the inhibitory constant (Ki) in [2] and in data set [3] were 5.5 nM and 12.3 nM, respectively.

As for `Cc1cc2c(cc1O)[C@H]1C[C@](O)(c3ccc(Cl)cc3)CCN1CC2`, in data set [4], the concentration for half-maximal inhibition (IC50) was determined as 150 nM. Further, in data set [1] (read-out: EC50), the EC50 was 750 nM. The inhibition constant (Ki) in [2] was 45.9 nM; in [3], 132 nM.
